Calls of active or inactive are those of the source. The calls are words filed in the database; no cut-off is given here. Where only a bound is given, the exact number is not on record here.

The test system of series [1] is Plasmodium falciparum. As to the kind of experiment: Antimalarial activity against Plasmodium falciparum K1 infected in human erythrocytes assessed as inhibition of [3H]hypoxanthine incorporation incubated for 24 hrs prior to hypoxanthine addition measured after 18 hrs by liquid scintillation counting. In kind it is functional, organism-based.
Series [2] can be described thus: Cytotoxicity against human MCF7 cells assessed as growth inhibition at 25 ug/mL by SRB assay. As to conditions: read-out: GI. In kind it is cell-based.
The subject of series [3] is Plasmodium falciparum. The series can be described thus: Antimalarial activity against Plasmodium falciparum K1 infected in human erythrocytes assessed as inhibition of [3H]hypoxanthine incorporation at 10 ug/mL incubated for 24 hrs prior to hypoxanthine addition measured after 18 hrs by liquid scintillation counting. It counts as functional, organism-based.

For orientation: IC50 means the midpoint of a concentration-inhibition curve. Regarding `[C-]#[N+][C@@]12CCC(=C)[C@H]3[C@H](CC(C)(C)NC=O)C[C@H](C)[C@@H](CC[C@@H]1C)[C@@H]32`, the concentration for half-maximal inhibition (IC50) in the series with Plasmodium falciparum [1] was found to be 0.52 µM. In series [2], the inhibition at 25 ug/mL was less than 50%. Take `C[C@H]1[C@@H](O)O[C@@H]2O[C@@]3(C)CC[C@H]4[C@H](C)CC[C@@H]1[C@@]24OO3` [ARTENIMOL]: in the series with Plasmodium falciparum [1], the IC50 was found to be 0.0038 µM.

`C=C1CC[C@@]2(N=C=O)[C@H]3[C@H](CC[C@@H]2C)[C@@H](C)C[C@@H](CC(C)(C)NC=O)[C@H]13`: the IC50 with Plasmodium falciparum [1] was 8.85 µM. Also, the inhibition at 25 ug/mL in series [2] is less than 50%. On to `C=C(C)C[C@@H]1C[C@H](C)[C@H]2CC[C@](C)(NC=O)[C@H]3CCC(=C)[C@@H]1[C@H]23`, for which the outcome with Plasmodium falciparum [3] was inactive. Moreover, in series [2], the inhibition at 25 ug/mL was less than 50%. Consider `C=C1CC[C@@]2(N=C=S)[C@H]3[C@H](CC[C@@H]2C)[C@@H](C)C[C@@H](CC(C)(C)NC=O)[C@H]13`, for which the IC50 with Plasmodium falciparum [1] turned out to be 8.07 µM. In addition, the inhibition at 25 ug/mL in series [2] is less than 50%.

The values are drawn from ChEMBL document CHEMBL2034875, “Bifunctionalized amphilectane diterpenes from the sponge Stylissa cf. massa” (J Nat Prod, 2012).
